The values below come from US8853260B2, “Formulations of pharmacological agents, methods for the preparation thereof and methods for the use thereof” (priority 1997, dated 2014).

Data set [1] relates to ovarian cancer and breast cancer. As to conditions: 250 mg/m^2/21 days; cited from earlier work.
The nature of data set [2]: Blood kinetics following multiple intravenous dose levels of Capxol. Format: in vivo, rat. How it is done: Blood was collected from the tail vein and the AUC0-24 was calculated. At 24 hours, blood samples were collected; extracted, and the extract injected on HPLC to determine the level of parent compound in the blood.
The subject of data set [3] is patients with breast cancer, non-Hodgkin's lymphoma or ovarian cancer. As to conditions: cited from earlier work.

For the molecule `CC(=O)O[C@H]1C(=O)[C@@]2(C)[C@H]([C@H](OC(=O)c3ccccc3)[C@]3(O)C[C@H](OC(=O)[C@H](O)[C@@H](NC(=O)c4ccccc4)c4ccccc4)C(C)=C1C3(C)C)[C@]1(OC(C)=O)CO[C@@H]1C[C@@H]2O` [paclitaxel], the objective response rate in data set [1] was 35.9%. Further, the “level of parent compound in blood after 24 hours” value in data set [2] (9 mg/kg dose, given as Capxol) is given as 0.04 ppm. The “increase of parent compound level after 24 hours, factor” value in data set [2] (from the 9 mg/kg dose to the 148 mg/kg dose) turned out to be 8.5. Also, in data set [3] (24 hour infusion, combined with cyclophosphamide 5,625 mg/m^2 and cisplatin 165 mg/m^2, AHPCS), the MTD is 775 mg/m^2. Besides, the partial response in data set [3] (patients with breast cancer, combination with cyclophosphamide and cisplatin) is listed as 54%.
